Columns and labels:
Type in all cases: cell-based
[1] = tested on: interleukin-1α (IL-1α) gene; test: Inhibition of IL-1α gene expression in PMA-stimulated NHEK (real time PCR); details: Normal Human Epidermal Keratinocytes, PMA 25 ng/mL, 3 hours, compound 10 to 20 μM, GAPDH internal standard; FIG. 2 and FIG. 5
[2] = tested on: interleukin-1β (IL-1β) gene; test: Inhibition of IL-1β gene expression in PMA-stimulated NHEK (real time PCR); details: Normal Human Epidermal Keratinocytes, PMA 25 ng/mL, 3 hours, compound 10 to 20 μM, GAPDH internal standard; FIG. 3 and FIG. 6
[3] = tested on: interleukin-33 (IL-33) gene; test: Inhibition of IL-33 gene expression in PMA-stimulated NHEK (real time PCR); details: Normal Human Epidermal Keratinocytes, PMA 25 ng/mL, 3 hours, compound 10 to 20 μM, GAPDH internal standard; FIG. 1 and FIG. 4
Method: The following provides the details of in vitro tests. 6×10^4 cells of Normal Human Epidermal Keratinocytes (NHEK manufactured by KURABO INDUSTRIES LTD.) were seeded on a 12 well plate and cultured at 37° C. under 5% CO2 conditions for 72 hours. The incubation medium was removed and then replaced by a culture medium including the following inflammatory stimulating substance (final concentration: 25 ng/mL) and the individual compound used in each of the above Test Examples, followed by further culturing at 37° C. under 5% CO2 conditions for 3 hours. Thereafter, total RNA was purified from cells according to the instruction manual of product name “PureLink RNA Mini kit” (INVITROGEN), and RNA purified using the test kit “ReverTra Ace™ qPCR RT Master Mix (manufactured by TOYOBO CO., LTD.)” was reverse-transcribed to cDNA. For the cDNA, IL-33 mRNA expression level was quantitatively evaluated by a real time PCR method. Glyceraldehyde-3-phosphate dehydrogenase (GAPDH) was used as an internal standard calibration. The compounds used in Test Examples were dissolved in dimethyl sulfoxide (DMSO) to prepare the individual stocks, and then respectively dissolved in the culture media to have a concentration of 10 to 20 μM. At this time, dilution was performed to allow DMSO to have a concentration (1% or less) at which no cytotoxicity is caused. […]

CCCCCCCCCCCCCCCC(=O)OC[C@H](O)[C@H]1OC(=O)C(OCC(O)CO)=C1O (stereo partly drawn) [2-O-glyceryl-6-O-hexadecanoyl ascorbic acid]
inhibited: expression of interleukin-1α (IL-1α) gene [1] | expression of interleukin-1β (IL-1β) gene [2] | IL-33 mRNA expression level [3]
